# Reference: patent US7244758B2, “N-type calcium channel blockers” (Neuromed Pharmaceuticals Ltd., priority 2003, dated 2007)
# Like-named read-outs stand apart in the source and are kept apart here.
# How the values were obtained:
# [1] = target: T1, human α1G T-type channels (Homo sapiens, UniProt O43497); assay: Block of α1G T-type channels, whole-cell patch clamp in HEK cells; format: cell-based
# T1 construct: expressed in transfected cells
# Procedure: Standard patch-clamp techniques were employed to identify blockers of T-type currents. Briefly, previously described HEK cell lines stably expressing human α1G T-type channels were used for all the recordings (passage #: 4-20, 37° C., 5% CO2). To obtain T-type currents, plastic dishes containing semi-confluent cells were positioned on the stage of a ZEISS AXIOVERT S100 microscope after replacing the culture medium with external solution (see below). Whole-cell patches were obtained using pipettes (borosilicate glass with filament, O.D.: 1.5 mm, I.D.: 0.86 mm, 10 cm length), fabricated on a SUTTER P-97 puller with resistance values of ˜5 MΩ (see below for internal solution).
# In the non-inactivating protocol, the holding potential is set at −110 mV and with a pre-pulse at −100 mV for 1 second prior to the test pulse at −40 mV for 50 ms. […]
# Test compounds were dissolved in external solution, 0.1-0.01% DMSO. After ˜10 min rest, they were applied by gravity close to the cell using a WPI microfil tubing. The “non-inactivated” pre-pulse was used to examine the resting block of a compound. The “inactivated” protocol was employed to study voltage-dependent block. However, the initial data shown below were mainly obtained using the non-inactivated protocol only. IC50 values are shown for various compounds of the invention in Table 6.
# [2] = target: T2, rat brain N-type calcium channel subunits (α1B+α2δ+β1b) (Rattus norvegicus, UniProt Q02294); assay: N-type calcium channel block, whole cell patch clamp in HEK 293 cells; format: cell-based; conditions: holding −80 mV to +10 mV, 5 mM Ba
# T2 construct: expressed in transfected cells; host or cells: HEK 293
# T2 sequence (Q02294 whole entry): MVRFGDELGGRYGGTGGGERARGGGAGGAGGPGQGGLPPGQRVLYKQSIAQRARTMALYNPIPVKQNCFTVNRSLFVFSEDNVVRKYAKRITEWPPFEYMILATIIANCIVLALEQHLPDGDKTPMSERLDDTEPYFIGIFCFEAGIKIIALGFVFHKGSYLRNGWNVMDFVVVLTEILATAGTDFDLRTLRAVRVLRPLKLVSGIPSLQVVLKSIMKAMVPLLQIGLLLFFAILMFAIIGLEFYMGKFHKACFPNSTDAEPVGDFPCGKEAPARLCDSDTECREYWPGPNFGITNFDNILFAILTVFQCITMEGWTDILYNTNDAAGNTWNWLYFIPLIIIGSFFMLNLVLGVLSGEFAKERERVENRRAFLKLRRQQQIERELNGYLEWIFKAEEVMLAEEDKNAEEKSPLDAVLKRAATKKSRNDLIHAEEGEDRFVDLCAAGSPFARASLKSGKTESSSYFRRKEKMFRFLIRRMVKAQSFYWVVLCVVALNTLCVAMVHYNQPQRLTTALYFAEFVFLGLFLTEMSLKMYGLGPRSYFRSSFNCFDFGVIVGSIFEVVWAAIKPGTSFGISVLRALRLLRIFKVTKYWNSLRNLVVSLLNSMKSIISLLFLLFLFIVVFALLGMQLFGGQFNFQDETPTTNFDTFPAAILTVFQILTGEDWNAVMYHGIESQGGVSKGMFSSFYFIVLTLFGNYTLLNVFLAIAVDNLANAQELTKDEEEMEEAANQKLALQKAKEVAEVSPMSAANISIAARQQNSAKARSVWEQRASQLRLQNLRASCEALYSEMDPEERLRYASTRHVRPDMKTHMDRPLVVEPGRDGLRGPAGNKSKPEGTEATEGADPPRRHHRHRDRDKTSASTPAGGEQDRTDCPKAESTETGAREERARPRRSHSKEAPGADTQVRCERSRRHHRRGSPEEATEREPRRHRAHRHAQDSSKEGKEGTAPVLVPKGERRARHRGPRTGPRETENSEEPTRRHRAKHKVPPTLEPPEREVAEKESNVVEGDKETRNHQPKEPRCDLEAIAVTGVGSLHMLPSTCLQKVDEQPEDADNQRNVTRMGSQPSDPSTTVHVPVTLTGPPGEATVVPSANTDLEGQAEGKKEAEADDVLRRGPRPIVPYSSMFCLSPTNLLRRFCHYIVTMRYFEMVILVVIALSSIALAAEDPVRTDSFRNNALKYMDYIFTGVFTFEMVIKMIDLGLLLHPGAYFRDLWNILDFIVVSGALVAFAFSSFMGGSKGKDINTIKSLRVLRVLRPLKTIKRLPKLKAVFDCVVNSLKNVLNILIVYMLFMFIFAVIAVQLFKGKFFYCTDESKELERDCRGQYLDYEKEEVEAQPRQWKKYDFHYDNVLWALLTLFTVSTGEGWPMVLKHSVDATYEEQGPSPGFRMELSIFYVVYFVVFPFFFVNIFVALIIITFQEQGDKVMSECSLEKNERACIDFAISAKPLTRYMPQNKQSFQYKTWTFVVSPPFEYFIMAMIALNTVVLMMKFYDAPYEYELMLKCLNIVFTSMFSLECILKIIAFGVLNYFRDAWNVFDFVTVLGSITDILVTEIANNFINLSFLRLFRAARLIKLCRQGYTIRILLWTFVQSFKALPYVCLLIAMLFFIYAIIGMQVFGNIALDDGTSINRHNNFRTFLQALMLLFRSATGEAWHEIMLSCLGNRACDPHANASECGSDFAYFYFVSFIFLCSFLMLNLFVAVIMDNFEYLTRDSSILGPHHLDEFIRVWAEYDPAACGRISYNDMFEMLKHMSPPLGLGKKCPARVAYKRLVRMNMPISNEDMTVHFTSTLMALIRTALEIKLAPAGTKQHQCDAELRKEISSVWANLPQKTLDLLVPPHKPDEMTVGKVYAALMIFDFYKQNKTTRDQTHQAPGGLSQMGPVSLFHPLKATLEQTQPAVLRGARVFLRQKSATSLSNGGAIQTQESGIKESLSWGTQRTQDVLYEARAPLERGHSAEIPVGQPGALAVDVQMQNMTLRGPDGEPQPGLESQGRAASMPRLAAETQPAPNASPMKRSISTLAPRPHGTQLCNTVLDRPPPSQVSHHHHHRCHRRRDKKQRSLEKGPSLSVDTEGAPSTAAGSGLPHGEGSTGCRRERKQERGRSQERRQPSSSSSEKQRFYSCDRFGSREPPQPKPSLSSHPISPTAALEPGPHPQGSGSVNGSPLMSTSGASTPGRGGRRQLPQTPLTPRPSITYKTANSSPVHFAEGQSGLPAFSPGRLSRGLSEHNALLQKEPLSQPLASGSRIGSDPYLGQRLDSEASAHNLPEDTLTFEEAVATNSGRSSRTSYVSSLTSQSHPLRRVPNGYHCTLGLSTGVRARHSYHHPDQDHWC
# Procedure: Antagonist activity was measured using whole cell patch recordings on human embryonic kidney cells either stably or transiently expressing rat α1B+α2δ+β1b channels (N-type channels) with 5 mM barium as a charge carrier. P/Q-type channels (α1A+α2δ+β1b cDNA subunits) and L-type channels (α1C+α2δ+β1b cDNA subunits) were also transiently expressed in HEK 293 cells.
# For transient expression, host cells, such as human embryonic kidney cells, HEK 293 (ATCC# CRL 1573) were grown in standard DMEM medium supplemented with 2 mM glutamine and 10% fetal bovine serum. HEK 293 cells were transfected by a standard calcium-phosphate-DNA coprecipitation method using the rat α1B+β1b+α2δ N-type calcium channel subunits in a vertebrate expression vector (for example, see Current Protocols in Molecular Biology).
# After an incubation period of from 24 to 72 hrs the culture medium was removed and replaced with external recording solution (see below). Whole cell patch clamp experiments were performed using an Axopatch 200B amplifier (Axon Instruments, Burlingame, Calif.) linked to an IBM compatible personal computer equipped with pCLAMP software. Borosilicate glass patch pipettes (Sutter Instrument Co., Novato, Calif.) were polished (Microforge, Narishige, Japan) to a resistance of about 4 MΩ when filled with cesium methanesulfonate internal solution (composition in MM: 109 CsCH3 SO4, 4 MgCl2, 9 EGTA, 9 HEPES, pH 7.2). Cells were bathed in 5 mM Ba^++ (in mM: 5 BaCl2, 1 MgCl2, 10 HEPES, 40 tetraethylammonium chloride, 10 glucose, 87.5 CsCl pH 7.2). […] Drugs were perfused directly into the vicinity of the cells using a microperfusion system.
# Normalized dose-response curves were fit (Sigmaplot 4.0, SPSS Inc., Chicago, Ill.) by the Hill equation to determine IC50 values. Steady-state inactivation curves were plotted as the normalized test pulse amplitude following 5 s inactivating prepulses at +10 mV increments. Inactivation curves were fit (Sigmaplot 4.0) with the Boltzman equation, Ipeak (normalized)=1/(1+exp((V−Vh)z/25.6)), where V and Vh are the conditioning and half inactivation potentials, respectively, and z is the slope factor.
# N-type calcium channel blocking activity was assayed in human embryonic kidney cells, HEK 293, stably transfected with the rat brain N-type calcium channel subunits (α1B+α2δ+β1b cDNA subunits). Alternatively, N-type calcium channels (α1B+α2δ+β1b cDNA subunits), L-type channels (α1C+α2δ+β1b cDNA subunits) and P/Q-type channels (α1A+α2δ+β1b cDNA subunits) were transiently expressed in HEK 293 cells. Briefly, cells were cultured in Dulbecco's modified eagle medium (DMEM) supplemented with 10% fetal bovine serum, 200 U/ml penicillin and 0.2 mg/ml streptomycin at 37° C. with 5% CO2. At 85% confluency cells were split with 0.25% trypsin/1 mM EDTA and plated at 10% confluency on glass coverslips. At 12 hours the medium was replaced and the cells transiently transfected using a standard calcium phosphate protocol and the appropriate calcium channel cDNA's. Fresh DMEM was supplied and the cells transferred to 28° C./5% CO2. Cells were incubated for 1 to 2 days to whole cell recording.
# Whole cell patch clamp experiments were performed using an Axopatch 200B amplifier (Axon Instruments, Burlingame, Calif.) linked to a personal computer equipped with pCLAMP software. The external and internal recording solutions contained, respectively, 5 mM BaCl2, […], 10 mM HEPES, 40 mM TEACl, 10 mM glucose, 87.5 mM CsCl (pH 7.2) and 108 mM CsMS, 4 mM MgCl2, 9 mM EGTA, 9 mM HEPES (pH 7.2). Currents were typically elicited from a holding potential of −80 mV to +10 mV using Clampex software (Axon Instruments).
# [3] = non-inactivating protocol, pre-pulse −100 mV (resting block), read-out: IC50 at −100 mV
# [4] = low frequency stimulation 0.067 Hz (tonic block), read-out: IC50 at 0.067 Hz
# [5] = inactivation protocol (voltage-dependent block), read-out: IC50 at −80 mV
# [6] = pulse frequency 0.2 Hz (frequency dependent block), read-out: IC50 at 0.2 Hz
# T1 sequence (O43497 whole entry): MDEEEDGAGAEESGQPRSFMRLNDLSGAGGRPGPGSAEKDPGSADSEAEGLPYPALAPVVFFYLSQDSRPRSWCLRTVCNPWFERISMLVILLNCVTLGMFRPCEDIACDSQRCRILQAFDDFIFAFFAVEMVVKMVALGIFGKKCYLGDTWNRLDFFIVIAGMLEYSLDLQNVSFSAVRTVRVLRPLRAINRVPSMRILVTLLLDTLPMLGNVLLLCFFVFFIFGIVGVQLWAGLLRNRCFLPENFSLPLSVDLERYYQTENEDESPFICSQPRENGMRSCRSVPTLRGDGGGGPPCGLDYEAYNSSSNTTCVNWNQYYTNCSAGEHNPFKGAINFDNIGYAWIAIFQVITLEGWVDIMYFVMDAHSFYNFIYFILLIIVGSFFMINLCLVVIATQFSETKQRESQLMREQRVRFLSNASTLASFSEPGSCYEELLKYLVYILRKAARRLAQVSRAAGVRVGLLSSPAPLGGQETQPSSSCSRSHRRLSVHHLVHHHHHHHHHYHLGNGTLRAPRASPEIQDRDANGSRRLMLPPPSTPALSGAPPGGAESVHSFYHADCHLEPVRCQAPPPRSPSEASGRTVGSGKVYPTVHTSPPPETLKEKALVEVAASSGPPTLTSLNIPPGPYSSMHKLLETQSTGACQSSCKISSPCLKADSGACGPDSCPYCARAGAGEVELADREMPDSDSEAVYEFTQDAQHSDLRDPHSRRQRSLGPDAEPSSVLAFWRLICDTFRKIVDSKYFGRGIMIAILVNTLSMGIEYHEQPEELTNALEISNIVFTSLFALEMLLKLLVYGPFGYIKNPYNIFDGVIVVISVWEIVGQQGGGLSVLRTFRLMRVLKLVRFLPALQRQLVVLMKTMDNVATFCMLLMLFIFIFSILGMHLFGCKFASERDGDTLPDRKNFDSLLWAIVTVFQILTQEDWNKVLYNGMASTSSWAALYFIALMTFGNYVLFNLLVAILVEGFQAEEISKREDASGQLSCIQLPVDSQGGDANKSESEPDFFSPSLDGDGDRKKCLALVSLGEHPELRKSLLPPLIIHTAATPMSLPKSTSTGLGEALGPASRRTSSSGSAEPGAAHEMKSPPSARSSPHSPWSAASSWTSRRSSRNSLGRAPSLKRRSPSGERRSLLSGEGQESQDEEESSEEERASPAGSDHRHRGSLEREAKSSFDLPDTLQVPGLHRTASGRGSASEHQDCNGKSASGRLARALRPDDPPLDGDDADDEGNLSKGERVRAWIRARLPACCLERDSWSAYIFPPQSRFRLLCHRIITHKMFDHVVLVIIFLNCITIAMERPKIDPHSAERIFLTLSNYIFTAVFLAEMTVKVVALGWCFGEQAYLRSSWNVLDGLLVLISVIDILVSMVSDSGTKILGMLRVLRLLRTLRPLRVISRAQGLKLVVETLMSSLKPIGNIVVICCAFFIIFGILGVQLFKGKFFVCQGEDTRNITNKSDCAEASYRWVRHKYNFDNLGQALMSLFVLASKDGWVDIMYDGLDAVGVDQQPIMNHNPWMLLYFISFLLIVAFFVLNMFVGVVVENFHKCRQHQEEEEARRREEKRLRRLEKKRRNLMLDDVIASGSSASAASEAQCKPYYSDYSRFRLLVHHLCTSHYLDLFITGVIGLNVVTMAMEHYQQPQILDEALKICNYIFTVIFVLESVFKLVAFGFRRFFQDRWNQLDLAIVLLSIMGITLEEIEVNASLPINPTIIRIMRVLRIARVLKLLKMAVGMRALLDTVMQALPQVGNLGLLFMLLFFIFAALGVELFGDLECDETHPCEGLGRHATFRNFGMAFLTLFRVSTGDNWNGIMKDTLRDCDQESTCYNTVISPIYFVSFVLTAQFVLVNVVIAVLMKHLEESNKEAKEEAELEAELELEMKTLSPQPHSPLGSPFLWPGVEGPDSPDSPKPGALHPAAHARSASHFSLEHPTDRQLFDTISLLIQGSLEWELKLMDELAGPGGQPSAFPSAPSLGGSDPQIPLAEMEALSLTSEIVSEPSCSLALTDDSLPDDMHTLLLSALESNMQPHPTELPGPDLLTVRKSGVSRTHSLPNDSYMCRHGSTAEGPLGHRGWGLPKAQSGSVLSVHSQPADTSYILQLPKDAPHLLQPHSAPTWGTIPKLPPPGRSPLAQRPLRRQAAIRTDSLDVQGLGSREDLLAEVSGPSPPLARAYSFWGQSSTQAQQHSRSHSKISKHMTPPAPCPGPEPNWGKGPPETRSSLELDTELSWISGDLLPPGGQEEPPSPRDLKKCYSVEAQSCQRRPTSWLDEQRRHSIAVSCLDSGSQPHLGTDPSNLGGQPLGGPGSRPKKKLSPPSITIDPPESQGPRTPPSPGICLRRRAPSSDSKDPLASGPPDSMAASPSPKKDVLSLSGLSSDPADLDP
SMILES,"IC50 [1, 3]","IC50 [2, 4]","IC50 [1, 5]","IC50 [2, 6]","IC50 at −100 mV ([1]; non-inactivating protocol, pre-pulse −100 mV (resting block))"
COc1c(C(C)(C)C)cc(C(=O)N2CCC(CNC(=O)CCCCC(c3ccc(F)cc3)c3ccc(F)cc3)C2)cc1C(C)(C)C (stereo not drawn) [Compound P11],0.027 µM,0.01 µM,–,–,–
CC(C)(C)c1cc(CNCC2CCN(CCCCCC(c3ccc(F)cc3)c3ccc(F)cc3)C2)cc(C(C)(C)C)c1 (stereo not drawn) [Compound P18],–,0.028 µM,–,–,–
O=C(COc1ccc(F)cc1F)NCC1CCN(C(=O)CCCCC(c2ccc(F)cc2)c2ccc(F)cc2)C1 (stereo not drawn) [Compound P31],0.46 µM,0.563 µM,0.196 µM,0.22 µM,–
CN(C)CCOc1c(C(C)(C)C)cc(C(=O)N2CCC(CNC(=O)CCCCC(c3ccc(F)cc3)c3ccc(F)cc3)C2)cc1C(C)(C)C (stereo not drawn) [Compound P23],–,0.41 µM,–,0.2 µM,–
CC(C)(C)c1cc(C(=O)N2CCC(CNC(=O)CCCCC(c3ccc(F)cc3)c3ccc(F)cc3)C2)cc(C(C)(C)C)c1O (stereo not drawn) [Compound P9],–,0.015 µM,–,–,–
O=C(CN(c1ccccc1)c1ccccc1)NCC1CCN(C(c2ccccc2)c2ccccc2)C1 (stereo not drawn) [Compound P45],0.41 µM,0.512 µM,0.067 µM,0.247 µM,–
O=C(CN(CC(=O)N(c1ccccc1)c1ccccc1)CC1CCN(C(c2ccccc2)c2ccccc2)C1)N(c1ccccc1)c1ccccc1 (stereo not drawn) [Compound P46],0.023 µM,0.007 µM,0.005 µM,0.001 µM,–
COc1c(C(C)(C)C)cc(CNCC2CCN(CCCCCC(c3ccc(F)cc3)c3ccc(F)cc3)C2)cc1C(C)(C)C (stereo not drawn) [Compound P14],–,0.039 µM,–,–,–
COc1cc(C(=O)NCC2CCN(CCCCCC(c3ccc(F)cc3)c3ccc(F)cc3)C2)cc(OC)c1OC (stereo not drawn) [Compound P20],–,0.45 µM,–,0.28 µM,–
COc1cc(CN(C)CC2CCN(C(=O)CCCCC(c3ccc(F)cc3)c3ccc(F)cc3)C2)cc(OC)c1OC (stereo not drawn) [Compound P58],0.079 µM,0.12 µM,0.058 µM,0.086 µM,–
O=C(CC(c1ccc(F)cc1)c1ccc(F)cc1)NCC1CCN(C(c2ccccc2)c2ccc(F)cc2)C1 (stereo not drawn) [Compound P50],–,0.076 µM,–,0.053 µM,–
O=C(CC(c1ccccc1)c1ccccc1)NCC1CCN(C(c2ccccc2)c2ccc(Cl)cc2)C1 (stereo not drawn) [Compound P26],0.137 µM,0.263 µM,0.042 µM,0.236 µM,–
COc1cc(C(=O)N2CCC(CNC(=O)CCCCC(c3ccc(F)cc3)c3ccc(F)cc3)C2)cc(OC)c1OC (stereo not drawn) [Compound P5],–,0.059 µM,–,–,No effect
CC(C)(C)c1cc(CNCC2CCN(CCCCCC(c3ccc(F)cc3)c3ccc(F)cc3)C2)cc(C(C)(C)C)c1O (stereo not drawn) [Compound P8],–,0.035 µM,–,–,–
O=C(CC(c1ccc(F)cc1)c1ccc(F)cc1)NCC1CCN(C(c2ccccc2)c2ccccc2)C1 (stereo not drawn) [Compound P51],–,0.072 µM,–,0.056 µM,–
Cc1cc(C)cc(NCC(=O)NCC2CCN(C(=O)CCCCC(c3ccc(F)cc3)c3ccc(F)cc3)C2)c1 (stereo not drawn) [Compound P40],0.328 µM,0.019 µM,0.105 µM,0.003 µM,–
CN(CC1CCN(C(c2ccccc2)c2ccccc2)C1)C(=O)CC(c1ccccc1)c1ccccc1 (stereo not drawn) [Compound P53],–,0.223 µM,–,0.157 µM,–
COc1cc(CNCC2CCN(CCCCCC(c3ccc(F)cc3)c3ccc(F)cc3)C2)cc(OC)c1OC (stereo not drawn) [Compound P4],–,0.4 µM,–,–,–

SMILES,"IC50 [1, 3]","IC50 [2, 4]","IC50 [1, 5]","IC50 [2, 6]","IC50 at −100 mV ([1]; non-inactivating protocol, pre-pulse −100 mV (resting block))"
CN(CC(=O)N(c1ccccc1)c1ccccc1)CC1CCN(C(c2ccccc2)c2ccccc2)C1 (stereo not drawn) [Compound P54],0.153 µM,0.279 µM,0.055 µM,0.241 µM,–
O=C(NCC1CCN(C(=O)CCCCC(c2ccc(F)cc2)c2ccc(F)cc2)C1)c1cc(Br)c(O)c(Br)c1 (stereo not drawn) [Compound P15],> 10 µM,> 1 µM,–,–,–
O=C(NCC1CCN(CCCCCC(c2ccc(F)cc2)c2ccc(F)cc2)C1)c1cc(C(F)(F)F)cc(C(F)(F)F)c1 (stereo not drawn) [Compound P21],–,0.21 µM,–,0.15 µM,–
CC(C)(C)c1ccc(C(c2ccccc2)N2CCC(CNC(=O)CC(c3ccc(F)cc3)c3ccc(F)cc3)C2)cc1 (stereo not drawn) [Compound P52],–,0.135 µM,–,0.11 µM,–
O=C(CC(c1ccccc1)c1ccccc1)NCC1CCN(C(c2ccccc2)c2ccccc2Cl)C1 (stereo not drawn) [Compound P37],0.111 µM,0.023 µM,0.028 µM,0.008 µM,–
O=C(CC(c1ccccc1)c1ccccc1)NCC1CCN(C(c2ccccc2)c2cccc(Cl)c2)C1 (stereo not drawn) [Compound P38],0.094 µM,0.08 µM,0.021 µM,0.024 µM,–
CN(Cc1cc(C(F)(F)F)cc(C(F)(F)F)c1)CC1CCN(C(=O)CCCCC(c2ccc(F)cc2)c2ccc(F)cc2)C1 (stereo not drawn) [Compound P57],0.115 µM,0.225 µM,0.028 µM,0.081 µM,–
O=C(CC(c1ccccc1)c1ccccc1)N1CCC(CNC(c2ccccc2)c2ccccc2)C1 (stereo not drawn) [Compound P2],0.326 µM,1.07 µM,0.052 µM,0.84 µM,–
COc1cc(CN2CCC(CNCCCCCC(c3ccc(F)cc3)c3ccc(F)cc3)C2)cc(OC)c1OC (stereo not drawn) [Compound P6],–,0.212 µM,–,–,–
CN(CCC(c1ccccc1)c1ccccc1)CC1CCN(C(c2ccccc2)c2ccccc2)C1 (stereo not drawn) [Compound P56],–,0.137 µM,–,0.092 µM,–
COc1c(C(C)(C)C)cc(C(=O)NCC2CCN(CCCCCC(c3ccc(F)cc3)c3ccc(F)cc3)C2)cc1C(C)(C)C (stereo not drawn) [Compound P19],0.07 µM,–,–,–,–
CN(CCN(c1ccccc1)c1ccccc1)CC1CCN(C(c2ccccc2)c2ccccc2)C1 (stereo not drawn) [Compound P55],0.057 µM,0.326 µM,0.018 µM,0.226 µM,–
COc1c(C(C)(C)C)cc(CN2CCC(CNCCCCCC(c3ccc(F)cc3)c3ccc(F)cc3)C2)cc1C(C)(C)C (stereo not drawn) [Compound P12],–,0.032 µM,–,–,–
O=C(CC(c1ccccc1)c1ccccc1)NCC1CCN(C(c2ccccc2)c2ccccc2)C1 (stereo not drawn) [Compound P1],–,0.061 µM,–,–,–
CC(C)(C)c1cc(C(=O)NCC2CCN(C(=O)CCCCC(c3ccc(F)cc3)c3ccc(F)cc3)C2)cc(C(C)(C)C)c1O (stereo not drawn) [Compound P7],–,0.049 µM,–,–,–
COc1c(C(C)(C)C)cc(C(=O)NCC2CCN(C(=O)CCCCC(c3ccc(F)cc3)c3ccc(F)cc3)C2)cc1C(C)(C)C (stereo not drawn) [Compound P42],0.094 µM,–,0.059 µM,–,–
COc1cc(C(=O)N2CCC(CN(C)CCCCCC(c3ccc(F)cc3)c3ccc(F)cc3)C2)cc(OC)c1OC (stereo not drawn) [Compound P63],–,0.38 µM,–,0.33 µM,–
